Tests used:
[1] = biological target: EGFR Del19/T790M/C797S (H1975-clone #28) (Homo sapiens, UniProt P00533, T790M/C797S, form not given); experiment: EGFR degradation, HTRF total-EGFR assay, H1975-clone #28 (DTC); type: cell-based; settings: H1975-clone #28 Del19/T790M/C797S, 16 h treatment
Method in brief: (§1)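 H1975 clones with endogenous EGFR knocked out and homozygous exogenous EGFR mutants (#28 Del19/T790M/C797S; #25 L858R/T790M/C797S) treated 16 h at 37 °C, 8 doses, 5-fold from 10 μM, 0.2% DMSO. Total EGFR measured by HTRF on lysates, normalised to DMSO controls; DC50 and Dmax from curve fit.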

[2] = biological target: T1, EGFR L858R/T790M/C797S (H1975-clone #25) (Homo sapiens, UniProt P00533, C797S/L858R/T790M); experiment: EGFR degradation, HTRF total-EGFR assay, H1975-clone #25 (LTC); type: cell-based; settings: H1975-clone #25 L858R/T790M/C797S, 16 h treatment
T1 construct: expressed in transfected cells; host or cells: H1975 (clone #25), lentiviral transduction, endogenous EGFR knocked out
Method in brief: as §1

| Compound | Degradation H1975 # 28 DTC [1] | Degradation H1975 # 25-LTC [2] |
| --- | --- | --- |
| Cc1cc2cc(n1)-c1cnn(C)c1OC[C@H]1C[C@@H](CN3/C(=N/C2=O)Nc2ccc(N4C5CCC4CN(C4CCN(c6cnc(C7CCC(=O)NC7=O)cc6C)CC4)C5)cc23)C1 (stereo partly drawn) [Example 130, 3-(5-(4-(8-((7^1s,7^3s,E)-1^1,2^6-dimethyl-3-oxo-5^2,5^3-dihydro-1^1H,5^1H-9-oxa-4-aza-5(2,1)-benzo[d]imidazola-2(2,4)-pyridina-1(4,5)-pyrazola-7(1,3)-cyclobutanacyclononaphane-5^6-yl)-3,8-diazabicyclo[3.2.1]octan-3-yl)piperidin-1-yl)-4-methylpyridin-2-yl)piperidine-2,6-dione] | 83.4 | 90.7 |
| Cc1cc2cc(n1)-c1cnn(C)c1OC[C@H]1C[C@@H](CN3/C(=N/C2=O)Nc2ccc(N4CC5CCC4CN5C4CCN(c5cnc(C6CCC(=O)NC6=O)cc5C)CC4)cc23)C1 (stereo partly drawn) [Example 132, 3-(5-(4-(5-((7^1s,7^3s,E)-1^1,2^6-dimethyl-3-oxo-5^2,5^3-dihydro-1^1H,5^1H-9-oxa-4-aza-5(2,1)-benzo[d]imidazola-2(2,4)-pyridina-1(4,5)-pyrazola-7(1,3)-cyclobutanacyclononaphane-5^6-yl)-2,5-diazabicyclo[2.2.2]octan-2-yl)piperidin-1-yl)-4-methylpyridin-2-yl)piperidine-2,6-dione] | 77.3 | 88.3 |
| Cc1cc2cc(n1)-c1cnn(C)c1OC[C@H]1C[C@@H](CN3/C(=N/C2=O)Nc2ccc(N(C)C4CC5(C4)CN(C4CCN(c6cc(F)c(C7CCC(=O)NC7=O)c(F)c6)CC4)C5)cc23)C1 (stereo partly drawn) [Example 136, (R)-3-(4-(4-(6-(((7^1s,7^3s,E)-1^1,2^6-dimethyl-3-oxo-5^2,5^3-dihydro-1^1H,5^1H-9-oxa-4-aza-5(2,1)-benzo[d]imidazola-2(2,4)-pyridina-1(4,5)-pyrazola-7(1,3)-cyclobutanacyclononaphane-5^6-yl)(methyl)amino)-2-azaspiro[3.3]heptan-2-yl)piperidin-1-yl)-2,6-difluorophenyl)piperidine-2,6-dione] | 85.0 | 87.0 |
| Cc1cc2cc(n1)-c1cnn(C)c1OC[C@H]1C[C@@H](CN3/C(=N/C2=O)Nc2ccc(N4CCN(C5CN(C6CCN(c7cc(F)c([C@H]8CCC(=O)NC8=O)c(F)c7)CC6)C5)CC4)cc23)C1 [Example 137, (R)-3-(4-(4-(3-(4-((7^1s,7^3s,E)-1^1,2^6-dimethyl-3-oxo-5^2,5^3-dihydro-1^1H,5^1H-9-oxa-4-aza-5(2,1)-benzo[d]imidazola-2(2,4)-pyridina-1(4,5)-pyrazola-7(1,3)-cyclobutanacyclononaphane-5^6-yl)piperazin-1-yl)azetidin-1-yl)piperidin-1-yl)-2,6-difluorophenyl)piperidine-2,6-dione] | 80.2 | 77.3 |
| (R)-3-(4-(4-(4-((7^1s,7^3s,E)-1^1,2^6-dimethyl-3-oxo-5^2,5^3-dihydro-1^1H,5^1H-9-oxa-4-aza-5(2,1)-benzo[d]imidazola-2(2,4)-pyridina-1(4,5)-pyrazola-7(1,3)-cyclobutanacyclononaphane-5^6-yl)piperazin-1-yl)piperidin-1-yl)-2,6-difluorophenyl)piperidine-2,6-dione [Example 6] | 91.2 | 91.7 |

Other lines, results leading:

| Degradation H1975 # 28 DTC [1] | Degradation H1975 # 25-LTC [2] | Compound |
| --- | --- | --- |
| 68.0 | 84.8 | Cc1cc2cc(n1)-c1cnn(C)c1OC[C@H]1C[C@@H](CN3/C(=N/C2=O)Nc2ccc(N4CCN(C5CN(C6CCN(c7cnc(C8CCC(=O)NC8=O)cc7C)CC6)C5)CC4)cc23)C1 (stereo partly drawn) [Example 131, 3-(5-(4-(3-(4-((7^1s,7^3s,E)-1^1,2^6-dimethyl-3-oxo-5^2,5^3-dihydro-1^1H,5^1H-9-oxa-4-aza-5(2,1)-benzo[d]imidazola-2(2,4)-pyridina-1(4,5)-pyrazola-7(1,3)-cyclobutanacyclononaphane-5^6-yl)piperazin-1-yl)azetidin-1-yl)piperidin-1-yl)-4-methylpyridin-2-yl)piperidine-2,6-dione] |
| 88.8 | 92.1 | Cc1cc2cc(n1)-c1cnn(C)c1OC[C@H]1C[C@@H](CN3/C(=N/C2=O)Nc2ccc(N4CCN([C@@H]5CCN(c6cnc(C7CCC(=O)NC7=O)cc6C)C[C@@H]5F)CC4)cc23)C1 (stereo partly drawn) [Example 133, 3-(5-((3S,4R)-4-(4-((7^1s,7^3S,E)-1^1,2^6-dimethyl-3-oxo-5^2,5^3-dihydro-1^1H,5^1H-9-oxa-4-aza-5(2,1)-benzo[d]imidazola-2(2,4)-pyridina-1(4,5)-pyrazola-7(1,3)-cyclobutanacyclononaphane-5^6-yl)piperazin-1-yl)-3-fluoropiperidin-1-yl)-4-methylpyridin 2-yl)piperidine-2,6-dione] |
| 89.6 | 92.0 | Cc1cc2cc(n1)-c1cnn(C)c1OC[C@H]1C[C@@H](CN3/C(=N/C2=O)Nc2ccc(N4CCN([C@H]5CCN(c6cnc(C7CCC(=O)NC7=O)cc6C)C[C@H]5F)CC4)cc23)C1 (stereo partly drawn) [Example 134, 3-(5-((3R,4S)-4-(4-((7^1s,7^3R,E)-1^1,2^6-dimethyl-3-oxo-5^2,5^3-dihydro-1^1H,5′H-9-oxa-4-aza-5(2,1)-benzo[d]imidazola-2(2,4)-pyridina-1(4,5)-pyrazola-7(1,3)-cyclobutanacyclononaphane-5^6-yl)piperazin-1-yl)-3-fluoropiperidin-1-yl)-4-methylpyridin-2-yl)piperidine-2,6-dione] |
| 90.9 | 88.4 | Cc1cc2cc(n1)-c1cnn(C)c1OC[C@H]1C[C@@H](CN3/C(=N/C2=O)Nc2ccc(N4CCN([C@@H]5CCN(c6cnc(C7CCC(=O)NC7=O)cc6C)C[C@H]5F)CC4)cc23)C1 (stereo partly drawn) [Example 138, 3-(5-((3R,4R)-4-(4-((7^1s,7^3S,E)-1^1,2^6-dimethyl-3-oxo-5^2,5^3-dihydro-1^1H,5^1H-9-oxa-4-aza-5(2,1)-benzo[d]imidazola-2(2,4)-pyridina-1(4,5)-pyrazola-7(1,3)-cyclobutanacyclononaphane-5^6-yl)piperazin-1-yl)-3-fluoropiperidin-1-yl)-4-methylpyridin-2-yl)piperidine-2,6-dione] |
